From patent US8338465B2, “Cyclic carboxylic acid rhodanine derivatives for the treatment and prevention of tuberculosis” (priority 2006, dated 2012)

Biological target: T1, dihydrolipoamide acyltransferase (DlaT) (Mycobacterium tuberculosis, UniProt P9WIS7)
T1 sequence (P9WIS7 1-553): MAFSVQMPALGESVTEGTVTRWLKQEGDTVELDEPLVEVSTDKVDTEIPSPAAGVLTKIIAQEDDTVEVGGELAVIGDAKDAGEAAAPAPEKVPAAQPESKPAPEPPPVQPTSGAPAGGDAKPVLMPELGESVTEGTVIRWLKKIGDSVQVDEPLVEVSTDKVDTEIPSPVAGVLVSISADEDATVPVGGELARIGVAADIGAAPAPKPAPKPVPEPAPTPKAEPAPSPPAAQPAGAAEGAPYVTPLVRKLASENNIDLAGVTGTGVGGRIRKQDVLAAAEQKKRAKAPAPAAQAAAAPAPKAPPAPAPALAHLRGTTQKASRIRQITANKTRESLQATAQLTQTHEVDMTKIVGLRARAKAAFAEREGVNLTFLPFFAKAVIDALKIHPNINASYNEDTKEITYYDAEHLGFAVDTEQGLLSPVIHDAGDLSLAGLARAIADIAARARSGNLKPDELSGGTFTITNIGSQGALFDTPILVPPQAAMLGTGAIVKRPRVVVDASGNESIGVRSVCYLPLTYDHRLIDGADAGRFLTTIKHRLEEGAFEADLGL
Experiment: DlaT inhibition (Dlat IC50); DTNB peroxidase assay with Lpd, DlaT and AhpD
Type: biochemical
Details: Dlat IC50 category

SMILES | IC50 [µM]
O=C(O)C1CCCC(N2C(=O)C(=Cc3ccc(-c4ccccc4Cl)s3)SC2=S)C1 (stereo not drawn) [Compound C32, 3-{4-oxo-2-thioxo-5-[1-(5-(2-chloro-phenyl)-thiophen-2-yl)-methylidene]-thiazolidin-3-yl}-cyclohexanecarboxylic acid] | < 10
O=C(O)C1CCCC(N2C(=O)C(=Cc3ccccc3OCc3ccccc3Cl)SC2=S)C1 (stereo not drawn) [Compound C33, 3-{5-[2-(2-Chloro-benzyloxy)-benzylidene]-4-oxo-2-thioxo-thiazolidin-3-yl}-cyclohexanecarboxylic acid] | 11 to 40
O=C(O)C1CCCC(N2C(=O)C(=Cc3ccc(-c4ccccc4Oc4ccccc4)o3)SC2=S)C1 (stereo not drawn) [Compound C34, 3-{4-oxo-5-[1-[5-(2-phenoxy-phenyl)-furan-2-yl]-methylidene]-2-thioxo-thiazolidin-3-yl}-cyclohexanecarboxylic acid] | < 10
O=C(O)C1CCCC(N2C(=O)C(=Cc3ccc(-c4ccccc4F)s3)SC2=S)C1 (stereo not drawn) [Compound C35, 3-{5-[1-[5-(2-fluoro-phenyl)-thiophen-2-yl]-methylidene]-4-oxo-2-thioxo-thiazolidin-3-yl}-cyclohexanecarboxylic acid] | 11 to 40
CCc1ccc(-c2ccc(C=C3SC(=S)N(C4CCCC(C(=O)O)C4)C3=O)o2)cc1 (stereo not drawn) [Compound C36, 3-{5-[1-[5-(4-ethyl-phenyl)-furan-2-yl]-methylidene]-4-oxo-2-thioxo-thiazolidin-3-yl}-cyclohexanecarboxylic acid] | < 10
O=C(O)C1CCCC(N2C(=O)C(=Cc3ccc(-c4ccc(C(F)(F)F)cc4)o3)SC2=S)C1 (stereo not drawn) [Compound C37, 3-{4-oxo-2-thioxo-5-[1-[5-(4-trifluoromethyl-phenyl)-furan-2-yl]-methylidene]-thiazolidin-3-yl}-cyclohexanecarboxylic acid] | < 10
O=C(O)C1CCCC(N2C(=O)C(=Cc3ccc(-c4cccc(-c5ccccc5)c4)o3)SC2=S)C1 (stereo not drawn) [Compound C38, 3-{5-[1-(5-biphenyl-3-yl-furan-2-yl)-methylidene]-4-oxo-2-thioxo-thiazolidin-3-yl}-cyclohexanecarboxylic acid] | < 10
CC(=O)Nc1ccc(-c2ccc(C=C3SC(=S)N(C4CCCC(C(=O)O)C4)C3=O)o2)cc1 (stereo not drawn) [Compound C39, 3-{5-[5-(4-Acetylamino-phenyl)-furan-2-ylmethylene]-4-oxo-2-thioxo-thiazolidin-3-yl}-cyclohexanecarboxylic acid] | < 10
CC(=O)c1ccc(-c2ccc(C=C3SC(=S)N(C4CCCC(C(=O)O)C4)C3=O)o2)cc1 (stereo not drawn) [Compound C40, 3-{5-[1-[5-(4-acetyl-phenyl)-furan-2-yl]-methylidene]-4-oxo-2-thioxo-thiazolidin-3-yl}-cyclohexanecarboxylic acid] | < 10
O=C(O)C1CCCC(N2C(=O)C(=Cc3ccc(-c4ccccc4F)o3)SC2=S)C1 (stereo not drawn) [Compound C41, 3-{5-[1-[5-(2-fluoro-phenyl)-furan-2-yl]-methylidene]-4-oxo-2-thioxo-thiazolidin-3-yl}-cyclohexanecarboxylic acid] | < 10
O=C(O)C1CCCC(N2C(=O)C(=Cc3ccc(-c4cccc(CO)c4)o3)SC2=S)C1 (stereo not drawn) [Compound C42, 3-{5-[1-[5-(3-hydroxymethyl-phenyl)-furan-2-yl]-methylidene]-4-oxo-2-thioxo-thiazolidin-3-yl}-cyclohexanecarboxylic acid] | < 10
O=C(O)C1CCCC(N2C(=O)C(=Cc3ccc(-c4ccc(F)cc4)o3)SC2=S)C1 (stereo not drawn) [Compound C43, 3-{5-[1-[5-(4-fluoro-phenyl)-furan-2-yl]-methylidene]-4-oxo-2-thioxo-thiazolidin-3-yl}-cyclohexanecarboxylic acid] | < 10
O=C(O)C1CCC(N2C(=O)C(=Cc3ccc(-c4ccccc4F)o3)SC2=S)CC1 (stereo not drawn) [Compound C44, 4-{5-[1-[5-(2-fluoro-phenyl)-furan-2-yl]-methylidene]-4-oxo-2-thioxo-thiazolidin-3-yl}-cyclohexanecarboxylic acid] | < 10
Cc1ccc(-c2ccc(C=C3SC(=S)N(C4CCC(C(=O)O)CC4)C3=O)o2)cc1 (stereo not drawn) [Compound C45, 4-{4-oxo-2-thioxo-5-[1-(5-p-tolyl-furan-2-yl)-methylidene]-thiazolidin-3-yl}-cyclohexanecarboxylic acid] | < 10
Cc1ccc(-c2ccc(C=C3SC(=S)N(C4CCC(C(=O)O)CC4)C3=O)o2)c(F)c1 (stereo not drawn) [Compound C46, 4-{5-[1-[5-(2-fluoro-4-methyl-phenyl)-furan-2-yl]-methylidene]-4-oxo-2-thioxo-thiazolidin-3-yl}-cyclohexanecarboxylic acid] | < 10
O=C(O)C1CCC(N2C(=O)C(=Cc3ccc(-c4ccccc4F)s3)SC2=S)CC1 (stereo not drawn) [Compound C47, 4-{5-[1-[5-(2-fluoro-phenyl)-thiophen-2-yl]-methylidene]-4-oxo-2-thioxo-thiazolidin-3-yl}-cyclohexanecarboxylic acid] | 11 to 40
CCOc1ccc(-c2ccc(C=C3SC(=S)N(C4CCCC(C(=O)O)C4)C3=O)o2)cc1 (stereo not drawn) [Compound C51, 3-{5-[1-[5-(4-ethoxy-phenyl)-furan-2-yl]-methylidene]-4-oxo-2-thioxo-thiazolidin-3-yl}-cyclohexanecarboxylic acid] | < 10
CCOc1ccc(-c2ccc(C=C3SC(=S)N(C4CCC(C(=O)O)CC4)C3=O)o2)cc1 (stereo not drawn) [Compound C52, 4-{5-[1-[5-(4-ethoxy-phenyl)-furan-2-yl]-methylidene]-4-oxo-2-thioxo-thiazolidin-3-yl}-cyclohexanecarboxylic acid] | < 10
COc1ccc(-c2ccc(C=C3SC(=S)N(C4CCC(C(=O)O)CC4)C3=O)o2)cc1F (stereo not drawn) [Compound C53, 4-{5-[1-[5-(3-fluoro-4-methoxy-phenyl)-furan-2-yl]-methylidene]-4-oxo-2-thioxo-thiazolidin-3-yl}-cyclohexanecarboxylic acid] | < 10
CSc1ccccc1-c1ccc(C=C2SC(=S)N(C3CCC(C(=O)O)CC3)C2=O)o1 (stereo not drawn) [Compound C54, 4-{5-[1-[5-(2-methylsulfanyl-phenyl)-furan-2-yl]-methylidene]-4-oxo-2-thioxo-thiazolidin-3-yl}-cyclohexanecarboxylic acid] | < 10
O=C(O)C1CCC(N2C(=O)C(=Cc3ccc(-c4ccc(C(F)(F)F)cc4)o3)SC2=S)CC1 (stereo not drawn) [Compound C55, 4-{4-oxo-2-thioxo-5-[1-[5-(4-trifluoromethyl-phenyl)-furan-2-yl]-methylidene]-thiazolidin-3-yl}-cyclohexanecarboxylic acid] | 11 to 40
O=C(O)C1CCCC(N2C(=O)C(=Cc3ccc(-c4ccc(Cl)cc4)o3)SC2=S)C1 (stereo not drawn) [Compound C56, 3-{5-[1-[5-(4-chloro-phenyl)-furan-2-yl]-methylidene]-4-oxo-2-thioxo-thiazolidin-3-yl}-cyclohexanecarboxylic acid] | < 10
CCCCOc1ccc(-c2ccc(C=C3SC(=S)N(C4CCC(C(=O)O)CC4)C3=O)o2)cc1 (stereo not drawn) [Compound C57, 4-{5-[1-[5-(4-butoxy-phenyl)-furan-2-yl]-methylidene]-4-oxo-2-thioxo-thiazolidin-3-yl}-cyclohexanecarboxylic acid] | 11 to 40
CS(=O)(=O)c1ccc(-c2ccc(C=C3SC(=S)N(C4CCCC(C(=O)O)C4)C3=O)o2)cc1 (stereo not drawn) [Compound C58, 3-{5-[5-(4-Methanesulfonyl-phenyl)-furan-2-ylmethylene]-4-oxo-2-thioxo-thiazolidin-3-yl}-cyclohexanecarboxylic acid] | < 10
CS(=O)(=O)c1ccc(-c2ccc(C=C3SC(=S)N(C4CCC(C(=O)O)CC4)C3=O)o2)cc1 (stereo not drawn) [Compound C59, 4-{5-[5-(4-Methanesulfonyl-phenyl)-furan-2-ylmethylene]-4-oxo-2-thioxo-thiazolidin-3-yl}-cyclohexanecarboxylic acid] | < 10
Cc1ccccc1-c1ccc(C=C2SC(=S)N(C3CCCC(C(=O)O)C3)C2=O)o1 (stereo not drawn) [Compound C60, 3-{4-oxo-2-thioxo-5-[1-(5-o-tolyl-furan-2-yl)-methylidene]-thiazolidin-3-yl}-cyclohexanecarboxylic acid] | < 10
Cc1ccccc1-c1ccc(C=C2SC(=S)N(C3CCC(C(=O)O)CC3)C2=O)o1 (stereo not drawn) [Compound C61, 4-{4-oxo-2-thioxo-5-[1-(5-o-tolyl-furan-2-yl)-methylidene]-thiazolidin-3-yl}-cyclohexanecarboxylic acid] | 11 to 40
CSc1cccc(-c2ccc(C=C3SC(=S)N(C4CCCC(C(=O)O)C4)C3=O)o2)c1 (stereo not drawn) [Compound C62, 3-{5-[1-[5-(3-methylsulfanyl-phenyl)-furan-2-yl]-methylidene]-4-oxo-2-thioxo-thiazolidin-3-yl}-cyclohexanecarboxylic acid] | < 10
CSc1cccc(-c2ccc(C=C3SC(=S)N(C4CCC(C(=O)O)CC4)C3=O)o2)c1 (stereo not drawn) [Compound C63, 4-{5-[1-[5-(3-methylsulfanyl-phenyl)-furan-2-yl]-methylidene]-4-oxo-2-thioxo-thiazolidin-3-yl}-cyclohexanecarboxylic acid] | < 10
CSc1ccc(-c2ccc(C=C3SC(=S)N(C4CCCC(C(=O)O)C4)C3=O)o2)cc1 (stereo not drawn) [Compound C64, 3-{5-[1-[5-(4-methylsulfanyl-phenyl)-furan-2-yl]-methylidene]-4-oxo-2-thioxo-thiazolidin-3-yl}-cyclohexanecarboxylic acid] | < 10
